According to patent US5298626A, “Select cyclopent[b]indoles” (priority 1992, dated 1994):
Where “and” joins values, the source holds several entries; their conditions need not be identical. Equal entries are not always repeated. Where two headings read alike, the source gives them in different places.

How the values were obtained:
[1] = molecular target: T1, Brain AChE (acetylcholinesterase) (Rattus norvegicus, UniProt P37136); experiment: biochemical; design: species or system rat (male Wistar); details: rat striatum, read-out: Inhibitory Concentration, IC50
T1 construct: corpora striata dissected free, weighed and homogenized in 19 volumes; from tissue; host or cells: corpora striata of male Wistar rats, whole homogenate
T1 sequence (P37136 32-614): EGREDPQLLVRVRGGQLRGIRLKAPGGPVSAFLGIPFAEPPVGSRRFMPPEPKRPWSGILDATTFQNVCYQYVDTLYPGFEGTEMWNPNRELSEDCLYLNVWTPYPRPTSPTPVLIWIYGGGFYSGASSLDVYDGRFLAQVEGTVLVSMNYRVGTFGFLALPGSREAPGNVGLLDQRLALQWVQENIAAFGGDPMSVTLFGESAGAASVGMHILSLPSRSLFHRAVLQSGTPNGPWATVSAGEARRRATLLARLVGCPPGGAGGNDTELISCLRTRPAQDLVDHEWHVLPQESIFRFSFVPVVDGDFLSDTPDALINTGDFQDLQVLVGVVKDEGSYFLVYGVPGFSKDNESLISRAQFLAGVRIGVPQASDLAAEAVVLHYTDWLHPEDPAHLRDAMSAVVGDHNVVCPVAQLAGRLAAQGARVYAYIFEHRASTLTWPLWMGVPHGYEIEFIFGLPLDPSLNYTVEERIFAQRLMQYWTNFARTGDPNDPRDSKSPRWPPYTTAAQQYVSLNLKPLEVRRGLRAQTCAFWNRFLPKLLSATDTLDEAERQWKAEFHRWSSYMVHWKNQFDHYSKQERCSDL
Description: Cholinesterases are found throughout the body, both in the brain and in serum.
In Vitro Inhibition of Acetylcholinesterase Activity in Rat Striatum
The method described below was used in this invention for assaying cholinesterase activity. This is a modification of the method of Ellman et al., Biochem. Pharmacol. 7, 88 (1961).
1. 0.05M Phosphate buffer, pH 7.2
4. A 2 mM stock solution of the test drug is made up in a suitable solvent and q.s. to volume with 0.5 mM DTNB (reagent 3). […] If active, IC50 values are determined from the inhibitory activity of subsequent concentrations.
Male Wistar rats are decapitated, brains rapidly removed, corpora striata dissected free, weighed and homogenized in 19 volumes (approximately 7 mg protein/ml) of 0.05M phosphate buffer, pH 7.2 using a Potter-Elvehjem homogenizer.
Enzyme activity is measured with the Beckman DU-50 spectrophotometer. This method can be used for IC50 determinations and for measuring kinetic constants.
Blank values are determined for each run to control for non-enzymatic hydrolysis of substrate and these values are automatically subtracted by the kindata program available on kinetics soft-pac module. This program also calculates the rate of absorbance change for each cuvette.
Substrate concentration is 10 mM diluted 1:2 in assay yielding final concentration of 5 mM. […] IC50 values are calculated from log-probit analysis

α2-receptor = experiment: 3H-Clonidine Binding: α2-Receptor; design: species or system rat (male Wistar); details: 3 nM 3H-clonidine, rat cortical tissue, pH 7.7
Description: See references 1, 2 and 3 cited below. The interaction of a compound with central α2 -receptors is assessed in the ^3 H-clonidine binding assay.
2. Tris buffer containing physiological ions
3. [4-^3 H]-Clonidine hydrochloride (20-30 Ci/mmol) is obtained from New England Nuclear.
4. Clonidine-HCl is obtained from Boehringer Ingelheim. A stock solution of 0.1 mM clonidine is made up to determine nonspecific binding. This yields a final concentration of 1 μM in the assay (20 μl to 2 ml).
Male Wistar rats are sacrificed by decapitation and the cortical tissue rapidly dissected. The tissue is homogenized in 50 volumes of 0.05M Tris buffer, pH 7.7 (buffer 1b) with the Brinkman Polytron, then centrifuged at 40,000 g for 15 minutes. The supernatant is discarded and the pellet re-homogenized in the original volume of 0.05M Tris buffer, pH 7.7 and re-centrifuged as before. The supernate is discarded and the final pellet re-homogenized in 50 volumes of buffer 2b. This tissue suspension is then stored on ice. The final tissue concentration is […]. Specific binding is 1% of the total added ligand and 80% of total bound ligand.
100 μl--0.5M Tris-physiological salts, pH 7.7 (buffer 2a)
20 μl--Vehicle (for total binding) or 0. 1 mM clonidine (for nonspecific binding) or appropriate drug concentration
50 μl--^3 H-clonidine stock
1000 μl tissue suspension
Tissue homogenates are incubated for 20 minutes at […] with 3 nM 3 H-clonidine and varying drug concentrations, and thereafter immediately filtered under reduced pressure on Whatman GF/B filters. The filters are washed with three five ml volumes of ice-cold 0.05M Tris buffer, pH 7.7, and thereafter transferred to scintillation vials. Ten ml of Liquiscint counting solution is added to each sample which is then counted by liquid scintillation spectroscopy. Specific clonidine binding is defined as the difference between total bound and […]. The percent inhibition at each drug concentration is the mean of triplicate determinations.

MAO-A = molecular target: T2, MAO-A (Rattus norvegicus, UniProt P21396); experiment: biochemical; design: species or system rat (male Wistar)
T2 construct: served as the tissue source for mitochondrial MAO; from tissue; host or cells: whole brain minus cerebellum of male Wistar rats, P2 pellet (18,000 g)
T2 sequence (P21396 1-526): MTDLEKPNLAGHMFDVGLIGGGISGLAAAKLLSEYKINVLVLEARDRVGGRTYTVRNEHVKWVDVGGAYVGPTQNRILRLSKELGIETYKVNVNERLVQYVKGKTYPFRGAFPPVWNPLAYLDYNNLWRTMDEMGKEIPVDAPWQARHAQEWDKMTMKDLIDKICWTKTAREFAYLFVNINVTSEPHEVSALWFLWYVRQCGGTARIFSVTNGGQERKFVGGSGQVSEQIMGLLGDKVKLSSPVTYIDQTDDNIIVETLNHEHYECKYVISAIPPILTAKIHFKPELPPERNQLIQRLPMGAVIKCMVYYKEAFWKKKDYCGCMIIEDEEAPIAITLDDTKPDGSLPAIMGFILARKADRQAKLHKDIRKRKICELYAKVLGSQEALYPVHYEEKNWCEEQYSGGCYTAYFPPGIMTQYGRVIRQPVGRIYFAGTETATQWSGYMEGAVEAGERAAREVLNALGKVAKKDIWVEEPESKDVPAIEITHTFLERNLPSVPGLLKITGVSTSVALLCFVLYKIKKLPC
Description: Inhibition of Type A and Type B Monoamine Oxidase
Activity in Rat Brain Synaptosomes
(§1) To determine the selective inhibition of the two forms of monoamine oxidase (MAO).
Although various methods for measuring MAO activity are available, the described method involves the extraction of the radiolabeled deaminated metabolites of [^3 H]-5HT or [^14 C]-β-phenethylamine.
a. Serotonin creatine SO4 (5HT) is obtained from Sigma Chemical Company. A 5 mM stock solution is made up in 0.01N HCl. This is used to dilute the specific activity of the [^3 H]-5HT. b. [^3 H]-5-Hydroxytryptamine binoxalate (20-30 Ci/mmol) is obtained from New England Nuclear. c. Add 12 μl of [^3 H]-5HT to 2 ml of the 5 mM 5HT solution. (Final amine concentration in the assay is 200 μM: see below.)
5. Equal amounts of MAO-A (5HT) and MAO-B (PEA) substrates are combined for simultaneously testing both MAO types, i.e. mixed stock solution of 2.5 mM 5HT and 2.5 mM PEA, 40 μl of this mixed solution gives a 200 μM final concentration of each amine in the assay. When testing only one MAO type, the individual 5 mM stock solutions must be diluted 1: 1 with distilled water prior to adding 40 μl to the incubation mixture; i.e., same 200 μM final amine concentration.
(§2) Male Wistar rats weighting 15-250 grams were sacrificed an removed. Whole brain minus cerebellum was homogenized in 30 volumes of ice-cold, phosphate-buffered 0.25M sucrose, using a Potter-Elvejhem homogenizer. The homogenate as centrifuged at 1000 g for 10 minutes and the supernatant (S1) decanted and recentifuged at 18,000 g for 20 minutes. […]
(§3) Tubes are preincubated for 15 minutes at 37° C. and the assay is started by adding 40 μl of combined substrate ([^3 H]-5HT and [^14 C]-PEA) at 15 second intervals. […] Tissue blank values are determined by adding the acid before the radioactive substrate. […] 10 ml of Liquiscint is added and the samples are counted using window settings for in ^14 C in one channel and ^3 H in the second channel. IC50 values are determined by log-probit analysis.

MAO-B = molecular target: T3, MAO-B (Rattus norvegicus, UniProt P19643); experiment: biochemical; design: species or system rat (male Wistar)
T3 construct: served as the tissue source for mitochondrial MAO; from tissue; host or cells: whole brain minus cerebellum of male Wistar rats, P2 pellet (18,000 g)
T3 sequence (P19643 1-520): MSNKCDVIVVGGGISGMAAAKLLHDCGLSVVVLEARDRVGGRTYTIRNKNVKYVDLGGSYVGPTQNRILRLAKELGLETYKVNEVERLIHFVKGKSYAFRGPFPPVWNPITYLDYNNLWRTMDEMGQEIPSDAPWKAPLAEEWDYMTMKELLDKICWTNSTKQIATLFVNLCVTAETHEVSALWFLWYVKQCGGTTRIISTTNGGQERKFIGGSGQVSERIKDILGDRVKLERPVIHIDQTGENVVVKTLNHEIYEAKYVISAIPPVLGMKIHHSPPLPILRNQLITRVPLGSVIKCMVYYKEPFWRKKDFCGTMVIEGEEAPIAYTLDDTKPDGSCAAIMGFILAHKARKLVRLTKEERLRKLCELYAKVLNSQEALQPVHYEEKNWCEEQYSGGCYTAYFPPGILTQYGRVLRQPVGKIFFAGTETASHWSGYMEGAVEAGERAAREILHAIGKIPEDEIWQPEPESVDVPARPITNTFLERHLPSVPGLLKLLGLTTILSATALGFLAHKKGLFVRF
Description: Activity in Rat Brain Synaptosomes
as §1
Although various methods for measuring MAO activity are available, the described method involves the extraction of the radiolabeled deaminated metabolites of [^3 H]-5HT or [^14 C]-β-phenethylamine. This procedure allows MAO-A and MAO-B activities to be measured either simultaneously or individually (3).
A 5 mM stock solution is made up in 0.01N HCl. This is used to dilute the specific activity of the [^14 C]-PEA. b. β-[ethyl-1-^14 C]-phenethylaminehydrochloride(40-50 mCi/mmol) is obtained from New England Nuclear. c. Add 12 μl of [^14 C]-PEA to 2 ml of the 5 mM PEA solution. (Final amine concentration in the assay is 200 μM: see below.)
Equal amounts of MAO-A (5HT) and MAO-B (PEA) substrates are combined for simultaneously testing both MAO types, i.e. mixed stock solution of 2.5 mM 5HT and 2.5 mM PEA, 40 μl of this mixed solution gives a 200 μM final concentration of each amine in the assay. When testing only one MAO type, the individual 5 mM stock solutions must be diluted 1: 1 with distilled water prior to adding 40 μl to the incubation mixture; i.e., same 200 μM final amine concentration.
as §2, §3

[2] = test system: Scopolamine Induced Memory Deficit; type: in vivo, mice
Description: In this assay mice are tested for their ability to remember an unpleasant stimulus for a period of 24 hours. A mouse is placed in a chamber that contains a dark compartment; a strong incandescent light drives it to the dark compartment, where an electric shock is administered through metal plates on the floor. The animal is removed from the testing apparatus and tested again, 24 hours later, for the ability to remember the electric shock.
If scopolamine, an anticholinergic that is known to cause memory impairment, is administered before an animal's initial exposure to the test chamber, the animal re-enters the dark compartment shortly after being placed in the test chamber 24 hours later. This effect of scopolamine is blocked by an active test compound, resulting in a greater interval before re-entry into the dark compartment.
The results for an active compound are expressed as the percent of a group of animals in which the effect of scopolamine is blocked, as manifested by an increased interval between being placed in the test chamber and re-entering the dark compartment.

[3] = test system: monoamine oxidase type A and type B; details: literature, reference (2); cited from earlier work

Which IC50 [1] does the source give for CNC(=O)Oc1ccc2c(c1)c1c(n2C)C(NCc2ccccc2)CC1 (stereo not shown) [4-methyl-3-phenylmethylamino-1,2,3,4-tetrahydrocyclopent[b]indol-7-yl methylcarbamate] here?
The IC50 was 1100 nM and 6200 nM.

With Cn1c2c(c3ccccc31)CCC2N (stereo not shown) [4-methyl-1,2,3,4-tetrahydrocyclopent[b]indol-3-amine] as the compound, how does the IC50 (α2-receptor) read?
The IC50 was 1490 nM.

What does the source list for CNC(=O)Oc1ccc2c(c1)c1c(n2C)C(NC2CC2)CC1 (stereo not shown) [3-(N-Cyclopropyl)amino-4-methyl-1,2,3,4-tetrahydrocyclopent[b]indol-7-yl methylcarbamate]?
IC50 (MAO-A): 320 nM; IC50 [1]: 3500 nM; IC50 (MAO-B): 420 nM; % of Animals with Scopolamine Induced Memory Deficit Reversal ([2]; 0.63 mg/kg of body weight, s.c., retest at 24 hours): 27%; % of Animals with Scopolamine Induced Memory Deficit Reversal ([2]; 2.5 mg/kg of body weight, s.c., retest at 24 hours): 33%

Which “selectivity for type A / type B monoamine oxidase” value [3] does the source give for CC(C)NNC(=O)c1ccncc1 [iproniazid] here?
Its value is “nonselective inhibitors”.

With CC[C@@H]1C(=O)OC[C@@H]1Cc1cncn1C [Pilocarpine, reference compound] as the compound, how does the “% of Animals with Scopolamine Induced Memory Deficit Reversal” value ([2]; 5.0 mg/kg of body weight, s.c., retest at 24 hours) read?
Its value is 13%.

With C#CCN(C)CCCOc1ccc(Cl)cc1Cl [Clorgyline] as the compound, how does the “selectivity for type A / type B monoamine oxidase” value [3] read?
The value was “selective inhibitor of the type A enzyme”.

Which IC50 (MAO-A) does the source give for CNC(=O)Oc1ccc2c(c1)c1c(n2C)C(=NC2CC2c2ccccc2)CC1 (stereo not shown) [4-Methyl-3-[(2-phenylcyclopropyl)imino]-1,2,3,4-tetrahydrocyclopent[b]indol-7-yl methylcarbamate] here?
The IC50 was 15200 nM.

What about the IC50 (MAO-B) of the same compound?
Its IC50 is 3700 nM.

For Nc1c2c(nc3ccccc13)CCCC2 [Tacrine, reference compound], which “% of Animals with Scopolamine Induced Memory Deficit Reversal” value ([2]; mouse, in vivo) is on record?
Its value is 13%.

Which IC50 (α2-receptor) does the source give for Cn1c2c(c3cc(O)ccc31)CCC2=NCc1ccccc1 [4-methyl-3-phenylmethylimino-1,2,3,4-tetrahydrocyclopent[b]indol-7-ol] here?
The IC50 was 850 nM.

With C#CCN(C)Cc1ccccc1 [pargyline] as the compound, how does the “selectivity for type A / type B monoamine oxidase” value [3] read?
Its value is “selective inhibitors of the type B enzyme”.

Which IC50 (α2-receptor) does the source give for CN(C)CCC=C1c2ccccc2CCc2ccccc21 [Amitriptyline, reference compound] here?
The IC50 was 3900 nM.

For NC1CCC2c3ccccc3NC12 (stereo not shown) [1,2,3,3a,4,8b-Hexahydrocyclopent[b]indol-3-amine 2-naphthalene sulfonate hemihydrate], which IC50 (α2-receptor) is on record?
Its IC50 is 1270 nM.

Which IC50 (MAO-A; substrate [3H]-5HT, 200 μM, read-out: Inhibitory Concentration - IC50, MAO-A) does the source give for C#CCNC1CCc2c1[nH]c1ccccc21 (stereo not shown) [1,2,3,4-Tetrahydrocyclopent[b]indol-3-(2-propynyl)amine] here?
The IC50 was 290 nM.

And the IC50 (MAO-B; substrate [14C]-PEA, 200 μM, read-out: Inhibitory Concentration - IC50, MAO-B)?
Its IC50 is 320 nM.
